PubChem BioAssay AID192 (DTP/NCI, 2004)
“And” between values parts separate entries of the source, which are not always exact repeats. Equal entries are not always repeated. Toxic doses and inconclusive results are not listed. Rule for the calls: active = survival T/C of 150% or more; inactive = T/C below 125% in these data.

System: BDF1 mice, B16 melanoma ip, median survival T/C
Experiment: NCI In Vivo Anticancer Drug Screen. Data for tumor model B16 Melanoma (intraperitoneal) in B6D2F1 (BDF1) mice
Conditions: endpoint: median survival time, higher = longer survival
Experimental: The antitumor activity of compounds was measured in mice bearing transplantable tumors. Survival or tumor size were measured and the results are expressed as the measurement made in the treated group (T) divided by the measurement made in the vehicle treated control group (C). The tumor model used in this assay is B16 Melanoma (intraperitoneal) in B6D2F1 (BDF1) mice

[1] = dose: 25.0 mg/kg/injection, schedule: Q01DX009 (ip), vehicle: Klucel (hydroxypropylcellulose) (HPC)
[2] = dose: 25.0 mg/kg/injection, schedule: Q01DX009 (ip), vehicle: saline with Tween-80
[3] = dose: 50.0 mg/kg/injection, schedule: Q01DX009 (ip), vehicle: saline with Tween-80
[4] = dose: 100.0 mg/kg/injection, schedule: Q01DX009 (ip), vehicle: Klucel (hydroxypropylcellulose) (HPC)
[5] = dose: 200.0 mg/kg/injection, schedule: Q01DX009 (ip), vehicle: Klucel (hydroxypropylcellulose) (HPC)
[6] = dose: 6.25 mg/kg/injection, schedule: Q01DX009 (ip), vehicle: Klucel (hydroxypropylcellulose) (HPC)

Measured: T/C

ClC1C(Cl)C(Cl)C(Cl)C(Cl)C1Cl (stereo unspecified)
inactive: [1] 95 % of control | [2] 100 % of control | dose: 50.0 mg/kg/injection, schedule: Q01DX009 (ip), vehicle: Klucel (hydroxypropylcellulose) (HPC) 105 % of control | [3] 99 % of control | [4] 93 % of control | [5] 93 % of control | dose: 200.0 mg/kg/injection, schedule: Q01DX009 (ip), vehicle: saline with Tween-80 96 % of control | dose: 400.0 mg/kg/injection, schedule: Q01DX009 (ip), vehicle: saline with Tween-80 89 % of control

Nc1nncs1
inactive: dose: 8.0 mg/kg/injection, schedule: Q01DX009 (ip), vehicle: saline 104 % of control | dose: 16.0 mg/kg/injection, schedule: Q01DX009 (ip), vehicle: other 111 % of control | dose: 16.0 mg/kg/injection, schedule: Q01DX009 (ip), vehicle: saline 99 % of control | dose: 32.0 mg/kg/injection, schedule: Q01DX009 (ip), vehicle: other 106 % of control | dose: 32.0 mg/kg/injection, schedule: Q01DX009 (ip), vehicle: saline 105 % of control | dose: 64.0 mg/kg/injection, schedule: Q01DX009 (ip), vehicle: other 104 % of control

CN(C)[C@@H]1C(=O)C(C(=O)NCN(CCCl)CCCl)=C(O)[C@@]2(O)C(=O)C3=C(O)c4c(O)cccc4[C@@](C)(O)[C@H]3C[C@@H]12
inactive: dose: 3.13 mg/kg/injection, schedule: Q01DX009 (ip), vehicle: Klucel (hydroxypropylcellulose) (HPC) 98 % of control | [6] 113 % of control | [1] 97 % of control

C1CC[N-]CC1.C1CC[N-]CC1.C1CC[N-]CC1.C1CC[N-]CC1.[Cl][Co][Cl]
inactive: dose: 37.5 mg/kg/injection, schedule: Q01DX009 (ip), vehicle: saline with Tween-80 103 % of control | dose: 75.0 mg/kg/injection, schedule: Q01DX009 (ip), vehicle: saline with Tween-80 87 % of control

CC(N)Cc1ccccc1 (stereo unspecified)
inactive: dose: 3.12 mg/kg/injection, schedule: Q01DX009 (ip), vehicle: saline 105 % of control | dose: 6.25 mg/kg/injection, schedule: Q01DX009 (ip), vehicle: saline 100 % of control | dose: 12.5 mg/kg/injection, schedule: Q01DX009 (ip), vehicle: saline 105 % of control | dose: 25.0 mg/kg/injection, schedule: Q01DX009 (ip), vehicle: saline 97 % of control | dose: 50.0 mg/kg/injection, schedule: Q01DX009 (ip), vehicle: saline 97 % of control | dose: 100.0 mg/kg/injection, schedule: Q01DX009 (ip), vehicle: saline 95 % of control

CC(C)[NH-].CC(C)[NH-].[Cl][Pt+2][Cl]
active: dose: 12.5 mg/kg/injection, schedule: Q01DX009 (ip), vehicle: dextrose 155 % of control

O=C(O)C(c1ccccc1)C1CCCC1 (stereo unspecified)
inactive: dose: 12.5 mg/kg/injection, schedule: Q01DX009 (ip), vehicle: saline with Tween-80 109 % of control | [2] 111 % of control | [3] 94 % of control and 106 % of control

Nc1cc2c(c[n+](CCCCCCCC[n+]3cc4c5ccccc5c(N)cc4c4ccccc43)c3ccccc23)c2ccccc12
active: dose: 2.59 mg/kg/injection, schedule: Q01DX009 (ip), vehicle: distilled water + Tween-80 156 % of control | dose: 4.32 mg/kg/injection, schedule: Q01DX009 (ip), vehicle: distilled water + Tween-80 167 % of control | dose: 6.25 mg/kg/injection, schedule: Q01DX009 (ip), vehicle: distilled water + Tween-80 162 % of control | dose: 7.2 mg/kg/injection, schedule: Q01DX009 (ip), vehicle: distilled water + Tween-80 180 % of control | dose: 10.0 mg/kg/injection, schedule: Q01DX009 (ip), vehicle: saline with Tween-80 166 % of control | dose: 12.0 mg/kg/injection, schedule: Q01DX009 (ip), vehicle: distilled water + Tween-80 182 % of control | dose: 20.0 mg/kg/injection, schedule: Q01DX009 (ip), vehicle: saline with Tween-80 160 % of control
inactive: dose: 0.78 mg/kg/injection, schedule: Q01DX009 (ip), vehicle: distilled water + Tween-80 120 % of control | dose: 1.25 mg/kg/injection, schedule: Q01DX009 (ip), vehicle: saline with Tween-80 118 % of control | dose: 1.56 mg/kg/injection, schedule: Q04DX003 (ip), vehicle: distilled water + Tween-80 114 % of control | dose: 2.5 mg/kg/injection, schedule: Q01DX009 (ip), vehicle: saline with Tween-80 123 % of control | dose: 3.12 mg/kg/injection, schedule: Q04DX003 (ip), vehicle: distilled water + Tween-80 108 % of control | dose: 12.5 mg/kg/injection, schedule: Q01DX009 (ip), vehicle: distilled water + Tween-80 88 % of control | dose: 25.0 mg/kg/injection, schedule: Q04DX003 (ip), vehicle: distilled water + Tween-80 106 % of control

O=C(Nc1ccccc1C(F)(F)F)c1cccc(C(=O)Nc2ccccc2C(F)(F)F)c1
inactive: dose: 100.0 mg/kg/injection, schedule: Q04DX003 (ip), vehicle: carboxymethylcellulose (CMC) 100 % of control | dose: 200.0 mg/kg/injection, schedule: Q04DX003 (ip), vehicle: carboxymethylcellulose (CMC) 91 % of control

COc1ccc(NC(=O)c2cccc(C(=O)Nc3ccc(OC)cc3)c2)cc1
inactive: [4] 102 % of control | [5] 108 % of control | dose: 400.0 mg/kg/injection, schedule: Q01DX009 (ip), vehicle: Klucel (hydroxypropylcellulose) (HPC) 102 % of control

O=c1oc(-c2ccc(Cl)cc2)nc2cc(Cl)ccc12
inactive: [6] 99 % of control | dose: 12.5 mg/kg/injection, schedule: Q01DX009 (ip), vehicle: Klucel (hydroxypropylcellulose) (HPC) 93 % of control | [1] 105 % of control and 106 % of control
